Results reported in patent US6706722B2, “Heteroaryl derivatives and their use as medicaments” (Zentaris AG, priority 2000, dated 2004).

Tests used:
[1] = test system: human breast adenocarcinoma line MCF7 (ATCC HTB22); assay: XTT proliferation test (cellular dehydrogenase activity), MCF7; type: cell-based; details: test period of 48 h
Method: (§1) In a proliferation test, the antiproliferative activity of the substance D-43411 was examined using established tumor cell lines. The Cellular Dehydrogenation activity is determined in the test, which enables determination of the vitality of the cell and, indirectly, the cell count. The cell lines used are the human cervical carcinoma cell lines KB/HeLa (ATCC/CCL17), the murine lymphocyte leukemia L1210 (ATCC CCL-219), the human breast adenocarcinoma line MCF7/ATCC HTB22) and the ovary adenocarcinoma line SKOV-3 (ATCC HTB77). These are established cell lines which are very well characterized and were obtained from ATCC and cultured. XTT Test for Cellular Dehydrogenase Activity The adherently growing tumor cell lines HeLa/KB, SKOV-3 and MCF7 and the L1210 leukemia line, which grows in suspension, were cultivated under standard conditions in an incubator with gas inlet at 37° C., 5% CO2 and 95% atmospheric humidity. On Test Day 1, the adherent cells are detached using trypsine/EDTA and pelleted by centrifugation. […] The cell plates are then incubated in the incubator with gas inlet for a further 3 hours, and the optical density (OD490nm) is determined in a photometer. Using the OD490nm obtained, the inhibition is calculated in percent relative to the control. […]

[2] = test system: ovary adenocarcinoma line SKOV-3 (ATCC HTB77); assay: XTT proliferation test (cellular dehydrogenase activity), SKOV-3; type: cell-based; details: Homo sapiens, SK-OV-3, in-vitro cytotoxicity, values determined from 5 substance concentrations, 45 h incubation
Method: as §1

[3] = test system: murine lymphocyte leukemia L1210 (ATCC CCL-219); assay: XTT proliferation test (cellular dehydrogenase activity), L1210; type: cell-based; details: Mus musculus, in-vitro cytotoxicity, values determined from 5 substance concentrations, 45 h incubation
Method: as §1

[4] = test system: human cervical carcinoma cell lines KB/HeLa (ATCC/CCL17); assay: XTT proliferation test (cellular dehydrogenase activity), KB/HeLa; type: cell-based; details: in-vitro cytotoxicity, values determined from 5 substance concentrations, 45 h incubation
Method: as §1

For COc1cc(OC)cc(N2CCN(C(=O)c3c4ccccc4nc4ccccc34)CC2)c1 [D-43411, 1-(3,5-Dimethoxyphenyl)-4-(9-acridinyl-carbonyl)piperazine], the inhibition at 3160 µg/mL ([1]; at 3.16 mg/ml) was 18%, the IC50 ([1]; in-vitro cytotoxicity, values determined from 5 substance concentrations) was > 3.16 µg/mL and the IC50 [2] was < 0.3 ng/mL. For the same compound, the IC50 [3] was < 0.3 ng/mL, the melting point was 172 to 175 °C and the IC50 [4] was < 0.3 ng/mL.
